# Results from patent US4684649A, “Quinoxaline derivatives useful for treatment and prophylaxis of swine dysentery and as animal growth promotants” (priority 1985, dated 1987).
# Tests used:
# [1] = tested on: Salmonella Typhimurium TA 1538; assay: Ames test, in the presence of microsomial extract, strain TA 1538; format: cell-based
# Source text: (§1) Mutation Test determined according to the "Ames test"
# (§2) (B.N. Ames et al. Mutation Research 31, page 347, 1975).
# (§3) The compound 2-[bis-(1'-hydroxy-3'-t-butyl-4'-methoxy-phenyl-2')-methyl-quinoxaline-1,4-dioxide prepared according to Example 1 was submitted to the Ames test showing the results summarized in the following two tables: […]
# [2] = tested on: Salmonella Typhimurium TA 1535; assay: Ames test, in the absence of microsomial extract, strain TA 1535; format: cell-based
# Source text: as §1, §2, §3
# [3] = tested on: Salmonella Typhimurium TA 98; assay: Ames test, in the presence of microsomial extract, strain TA 98; format: cell-based
# Source text: as §1, §2, §3
# [4] = tested on: Salmonella Typhimurium TA 100; assay: Ames test, in the absence of microsomial extract, strain TA 100; format: cell-based
# Source text: as §1, §2, §3
# [5] = tested on: Salmonella Typhimurium TA 100; assay: Ames test, in the presence of microsomial extract, strain TA 100; format: cell-based
# Source text: as §1, §2, §3
# [6] = tested on: Salmonella Typhimurium TA 98; assay: Ames test, in the absence of microsomial extract, strain TA 98; format: cell-based
# Source text: as §1, §2, §3
# Treponema hyodysenterae = assay: medicated feed in pigs exposed to Treponema hyodysenterae infections (swine dysentery); format: in vivo
# Source text: Compound of Example 1 was mixed with the swine balanced feed described on page 8 at the ratio of 200 grams/ton. A group of 30 pigs was fed with this medicated diet. An equivalent group of pigs was used as control. The two groups were stabled in pigsties where infections of Treponema hyodysenterae have been observed. No one of the animals under treatment was getting ill, while the 50% of the untreated animals in the control group was clearly showing typical symptoms of swine dysentery.
# [7] = growth promotion and feed efficiency in pigs; format: in vivo; details: 28 days, 200 grams/ton in diet
# Source text: The efficacy of compound of Example 1 in promoting growth and improving the feed efficiency is illustrated below. 20 healthy pigs of same age and of average same weight were divided into two groups. One group of 10 pigs served as control and was fed a basal non-supplemented diet, the other group of 10 pigs received the same basal diet, but supplemented with 200 grams/ton of compound of Example 1.
# Treponema hyodysenteriae = assay: in vitro antibacterial activity (MIC) against Treponema hyodysenteriae; format: cell-based; details: Brachyspira hyodysenteriae, growth medium with about 5% bovine blood and about 3% tryptose agar
# Procedure: MIC's against Treponema hyodysenteriae were determined by spreading appropriate dilutions of the microorganism on a growth medium containing about 5% bovine blood and about 3% tryptose agar.
# Among the compounds of structure I subjected to in vitro screening were the following in which R and R1 have the above meaning.
# [8] = tested on: Salmonella Typhimurium TA 1538; assay: Ames test, in the absence of microsomial extract, strain TA 1538; format: cell-based
# Source text: as §1, §2, §3
# [9] = tested on: Salmonella Typhimurium TA 1535; assay: Ames test, in the presence of microsomial extract, strain TA 1535; format: cell-based
# Source text: as §1, §2, §3
# Salmonella Typhimurium = details: Ames test; prior art compound; cited from earlier work
compound,measurement,setting,value
"[N-]=[N+]=[N-] [sodium azide, reference compound]",Number of mutating colonies/plate,"[1]; TA 1538, 10 mcg",2258 mutating colonies/plate
same,Number of mutating colonies/plate,"[2]; TA 1535, 10 mcg",1006 mutating colonies/plate
same,Number of mutating colonies/plate,"[3]; TA 98, 10 mcg",1803 mutating colonies/plate
"COc1ccc(O)c(C(c2c(O)ccc(OC)c2C(C)(C)C)c2c[n+]([O-])c3ccccc3[n+]2[O-])c1C(C)(C)C [Example 1, 2-[bis(1'-hydroxy-3'-t-butyl-4'-methoxy-phenyl-2')-methyl]-quinoxaline-1,4-dioxide]",Number of mutating colonies/plate,"[4]; TA 100, 10 mcg",168 mutating colonies/plate
same,Number of mutating colonies/plate,"[4]; TA 100, 30 mcg",165 mutating colonies/plate
same,Number of mutating colonies/plate,"[4]; TA 100, 100 mcg",151 mutating colonies/plate
same,Number of mutating colonies/plate,"[4]; TA 100, 300 mcg",162 mutating colonies/plate
same,Number of mutating colonies/plate,"[4]; TA 100, 600 mcg",177 mutating colonies/plate
same,Number of mutating colonies/plate,"[4]; TA 100, 1000 mcg",142 mutating colonies/plate
same,Number of mutating colonies/plate,"[1]; TA 1538, 10 mcg",16 mutating colonies/plate
same,Number of mutating colonies/plate,"[1]; TA 1538, 30 mcg",14 mutating colonies/plate
same,Number of mutating colonies/plate,"[1]; TA 1538, 100 mcg",15 mutating colonies/plate
same,Number of mutating colonies/plate,"[1]; TA 1538, 300 mcg",8 mutating colonies/plate
same,Number of mutating colonies/plate,"[1]; TA 1538, 600 mcg",18 mutating colonies/plate
same,Number of mutating colonies/plate,"[1]; TA 1538, 1000 mcg",14 mutating colonies/plate
same,Number of mutating colonies/plate,"[5]; TA 100, 10 mcg",158 mutating colonies/plate
same,Number of mutating colonies/plate,"[5]; TA 100, 30 mcg",143 mutating colonies/plate
same,Number of mutating colonies/plate,"[5]; TA 100, 100 mcg",135 mutating colonies/plate
same,Number of mutating colonies/plate,"[5]; TA 100, 300 mcg",174 mutating colonies/plate
same,Number of mutating colonies/plate,"[5]; TA 100, 600 mcg",175 mutating colonies/plate
same,Number of mutating colonies/plate,"[5]; TA 100, 1000 mcg",125 mutating colonies/plate
same,Number of mutating colonies/plate,"[2]; TA 1535, 10 mcg",15 mutating colonies/plate
same,Number of mutating colonies/plate,"[2]; TA 1535, 30 mcg",12 mutating colonies/plate
same,Number of mutating colonies/plate,"[2]; TA 1535, 100 mcg",9 mutating colonies/plate
same,Number of mutating colonies/plate,"[2]; TA 1535, 300 mcg",13 mutating colonies/plate
same,Number of mutating colonies/plate,"[2]; TA 1535, 600 mcg",25 mutating colonies/plate
same,Number of mutating colonies/plate,"[2]; TA 1535, 1000 mcg",16 mutating colonies/plate
same,Number of mutating colonies/plate,"[6]; TA 98, 10 mcg",25 mutating colonies/plate
same,Number of mutating colonies/plate,"[6]; TA 98, 30 mcg",24 mutating colonies/plate
same,Number of mutating colonies/plate,"[6]; TA 98, 100 mcg",27 mutating colonies/plate
same,Number of mutating colonies/plate,"[6]; TA 98, 300 mcg",24 mutating colonies/plate
same,Number of mutating colonies/plate,"[6]; TA 98, 600 mcg",27 mutating colonies/plate
same,Number of mutating colonies/plate,"[6]; TA 98, 1000 mcg",27 mutating colonies/plate
same,animals under treatment getting ill,"Treponema hyodysenterae; 200 grams/ton of feed, 30 pigs, control group 50% ill",No one
same,recovery of the infected animals,"Treponema hyodysenterae; after 2 weeks of treatment with medicated feed, 200 grams/ton",recovered completely
same,increase in feed efficiency over the controls,[7],"5,5%"
same,body weight increase over control (heavier on average),[7]; versus control ration,"4,6%"
same,MIC,Treponema hyodysenteriae,0.1 µg/mL
same,Number of mutating colonies/plate,"[8]; TA 1538, 10 mcg",11 mutating colonies/plate
same,Number of mutating colonies/plate,"[8]; TA 1538, 30 mcg",16 mutating colonies/plate
same,Number of mutating colonies/plate,"[8]; TA 1538, 100 mcg",15 mutating colonies/plate
same,Number of mutating colonies/plate,"[8]; TA 1538, 300 mcg",10 mutating colonies/plate
same,Number of mutating colonies/plate,"[8]; TA 1538, 600 mcg",17 mutating colonies/plate
same,Number of mutating colonies/plate,"[8]; TA 1538, 1000 mcg",17 mutating colonies/plate
same,Number of mutating colonies/plate,"[9]; TA 1535, 10 mcg",23 mutating colonies/plate
same,Number of mutating colonies/plate,"[9]; TA 1535, 30 mcg",26 mutating colonies/plate
same,Number of mutating colonies/plate,"[9]; TA 1535, 100 mcg",22 mutating colonies/plate
same,Number of mutating colonies/plate,"[9]; TA 1535, 300 mcg",16 mutating colonies/plate
same,Number of mutating colonies/plate,"[9]; TA 1535, 600 mcg",22 mutating colonies/plate
same,Number of mutating colonies/plate,"[9]; TA 1535, 1000 mcg",20 mutating colonies/plate
same,solubility,solubility; in acetone,slightly soluble
same,solubility,solubility; in benzene,slightly soluble
same,solubility,solubility; in dimethylformamide,soluble
same,solubility,solubility; in dioxane,soluble
same,solubility,solubility; in methanol,slightly soluble
same,solubility,solubility; in tetrahydrofuran,soluble
same,solubility,solubility; in water,very scarcely soluble
same,Number of mutating colonies/plate,"[3]; TA 98, 10 mcg",30 mutating colonies/plate
same,Number of mutating colonies/plate,"[3]; TA 98, 30 mcg",27 mutating colonies/plate
same,Number of mutating colonies/plate,"[3]; TA 98, 100 mcg",24 mutating colonies/plate
same,Number of mutating colonies/plate,"[3]; TA 98, 300 mcg",20 mutating colonies/plate
same,Number of mutating colonies/plate,"[3]; TA 98, 600 mcg",24 mutating colonies/plate
same,Number of mutating colonies/plate,"[3]; TA 98, 1000 mcg",28 mutating colonies/plate
"COc1ccc(O)c(C(c2c(O)ccc(OC)c2C(C)C)c2c[n+]([O-])c3ccccc3[n+]2[O-])c1C(C)C [Example 2, 2-[bis(1'-hydroxy-3'-i-propyl-4'-methoxy-phenyl-2')-methyl]-quinoxaline-1,4-dioxide]",MIC,Treponema hyodysenteriae,0.9 µg/mL
"COC(=O)NN=Cc1c[n+]([O-])c2ccccc2[n+]1[O-] [carbadox, 2-formyl-quinoxaline-1,4-dioxide carbomethoxyhydrazone]",mutagenic effect,Salmonella Typhimurium,substantial mutagenic effect
